Assays:
[1] = test system: Erysiphe graminis tritici (powdery mildew); assay: Foliar spray fungicide test, Erysiphe graminis tritici (powdery mildew) on wheat; conditions: for pest or weed control at 400 µg/mL: Blumeria graminis, in Triticum aestivum, foliar, read-out: ERYSGT disease control, host wheat, 400 ppm (+++: 100 ppm); for ERYSGT disease control: host wheat, 400 ppm (+++: 100 ppm)
Description: (§3) The test compounds were formulated for application by dissolving 50 mg of the compound into 1.25 ml of solvent. The solvent was prepared by mixing 50 ml of "Tween 20" (polyoxyethylene (20) sorbitan monolaurate emulsifier) with 475 ml of acetone and 475 ml of ethanol. The solvent/compound solution was diluted to 125 ml with deionized water. The resulting formulation contains 400 ppm test chemical. Lower concentrations were obtained by serial dilution with the solvent-surfactant mixture.
(§4) The formulated test compounds were applied by foliar spray. The following plant pathogens and their corresponding plants were employed.
(§5) The formulated technical compounds were sprayed on all foliar surfaces of the host plants to past run-off. Single pots of each host plant were placed on raised, revolving pedestals in a fume hood. Test solutions were sprayed on all foliar surfaces. All treatments were allowed to dry and the plants were inoculated with the appropriate pathogens within 24 hours.
(§6) The effectiveness of test compounds in controlling disease was rated using the following scale.

[2] = test system: tobacco budworm (Heliothis virescens); assay: Activity against tobacco budworm; type: in vivo; conditions: 6 days; for pest or weed control at 400 ppm / pest or weed control at 50 ppm: Heliothis virescens, 144 h, read-out: TBW activity (rated on live and dead larvae and size of live larvae); for pest or weed control at 400 ppm / TBW activity (rated on live and dead larvae and size of live larvae): 400 ppm
Description: (§1) The compounds identified in Table I were tested for miticidal and insecticidal activity against eight species. The following abbreviations are used in the Table III:
TBW refers to tobacco budworm
(§2) In conducting evaluations of insecticidal activity, each test compound was formulated as a 400 ppm solution, and this solution was then diluted with water to give lesser concentrations. The 400 ppm solution was prepared by combining 19.2 mL of 0.05% solution of Tween 20 (polyoxyethylene (20) sorbitan monolaurate) in water with a solution of 8 mg of the compound in 0.8 mL of acetone/EtOH (9/1).
Activity against tobacco budworm (Heliothis virescens) was evaluated as follows. A general purpose lepidoptera artificial diet was diluted to half strength with a 5% non nutritive agar. 8 mL of this diet material was dispensed into each one ounce diet cup. One hour prior to treatment 18 to 20 eggs were dispensed onto the diet surface. The cups were then sprayed with formulated material through a flat-fan nozzle. The test was run using concentrations of 400 ppm and 50 ppm. Treated cups were air dried prior to sealing with plastic caps. The cups were held for 6 days at room temperature. Activity was then rated based on the total number of live and dead larvae, and on the size of live larvae.

[3] = test system: two spotted spider mite (Tetranychus urticae); assay: whole plant or invertebrate; conditions: 72 h; for mortality at 400 ppm: read-out: TSSM activity (percent based on mites present in plants sprayed with solvent alone), 400 ppm, squash plants, three days after treatment; for mortality at 50 ppm: read-out: TSSM activity (percent based on mites present in plants sprayed with solvent alone), 50 ppm, squash plants, three days after treatment
[4] = test system: Pyricularia oryzae (rice blast); assay: whole plant or invertebrate; type: in vivo; conditions: foliar spray, 400 ppm (+++: 100 ppm); for pest or weed control at 400 µg/mL: Pyricularia oryzae, foliar, read-out: PYRIOR disease control, host rice; for PYRIOR disease control: host rice
[5] = test system: aster leafhopper (Macrosteles fascifrons); assay: whole plant or invertebrate; type: in vivo; conditions: for mortality at 50 ppm / mortality at 400 ppm: Macrosteles fascifrons, 24 h, read-out: ALH percent mortality; for mortality at 400 ppm / ALH percent mortality: 400 ppm; for ALH percent mortality: 24 hours, 1440 min
Description: as §1
ALH refers to aster leafhopper
as §2
Activity against aster leafhopper (Macrosteles fascifrons) was tested as follows. The test was run using concentrations of 400 ppm and 50 ppm. One ounce plastic cups containing a cotton wick was sprayed with 0.4 mL of formulated material using a flat-fan nozzle. The excess moisture was allowed to evaporate. Then five to ten carbon dioxide anesthetized adult leafhoppers were added to each cup. The cups were capped and held at room temperature for 24 hours. Percent mortality was then determined.

[6] = test system: cotton aphid (Aphis gossypii); assay: whole plant or invertebrate; conditions: 72 h; for mortality at 50 ppm: read-out: CA activity (percent based on aphids present in plants sprayed with solvent alone), 50 ppm, squash plants, three days after treatment; for mortality at 400 ppm: read-out: CA activity (percent based on aphids present in plants sprayed with solvent alone), 400 ppm, squash plants, three days after treatment
[7] = test system: Puccinia recondita tritici (leaf rust); assay: Foliar spray fungicide test, Puccinia recondita tritici (leaf rust) on wheat; conditions: for pest or weed control at 400 µg/mL: Puccinia recondita, in Triticum aestivum, foliar, read-out: PUCCRT disease control, host wheat, 400 ppm (+++: 100 ppm); for PUCCRT disease control: host wheat, 400 ppm (+++: 100 ppm)
Description: as §3, §4
Puccinia recondita PUCCRT wheat
as §5, §6

[8] = test system: Plasmopara viticola (downy mildew); assay: Foliar spray fungicide test, Plasmopara viticola (downy mildew) on grape; conditions: for pest or weed control at 400 µg/mL: Plasmopara viticola, foliar, read-out: PLASVI disease control
Description: as §3
(§7) The formulated test compounds were applied by foliar spray.
as §5, §6

[9] = test system: Southern corn rootworm (Diabrotica undecimpuctata howardi Barber); assay: whole plant or invertebrate; type: in vivo; conditions: 3-4 days, read-out: SCRW mortality
[10] = test system: Southern corn rootworm (Diabrotica undecimpuctata howardi Barber); assay: whole plant or invertebrate; type: in vivo; conditions: 400 ppm, soil concentration of 24 ppm, 3-4 days, read-out: SCRW mortality
Description: as §1
SCRW refers to southern corn rootworm
as §2
Activity on Southern corn rootworm (Diabrotica undecimpuctata howardi Barber) was evaluated by adding one mL of test solution containing a predetermined concentration of test compound to a cup containing a kernel of corn in 16 g of sterile soil. This produces a soil concentration of 24 ppm. After 1.5 to 2 hours of drying, five 4th instar corn rootworm larvae were added to the individual cups. Mortality was measured at 3-4 days by emptying the cup onto a pan and inspecting the soil for live rootworms.

[11] = test system: beet armyworm (Spodoptera exiqua); assay: Activity against beet armyworm; type: in vivo; conditions: 6 days; for pest or weed control at 50 ppm / pest or weed control at 400 ppm: Spodoptera, 144 h, read-out: BAW activity (rated on live and dead larvae and size of live larvae); for pest or weed control at 400 ppm / BAW activity (rated on live and dead larvae and size of live larvae): 400 ppm
Description: as §1
BAW refers to beet armyworm
as §2
Activity against beet armyworm (Spodoptera exiqua) was evaluated as follows. The test is run using concentrations of 400 ppm and 50 ppm. A general purpose lepidoptera artificial diet was diluted to half strength with a 5% non nutritive agar. 8 mL of this diet material was dispensed into one ounce diet cups. One hour prior to treatment, 35 to 40 eggs were dispensed onto the diet surface. The cups were then sprayed with formulated material through a flat-fan nozzle. Treated cups were air dried prior to sealing with plastic caps. The cups were held for 6 days at room temperature. Activity was then rated based on the total number of live and dead larvae, and on the size of live larvae.

[12] = test system: Leptosphaeria nodorum (glume blotch); assay: Foliar spray fungicide test, Leptosphaeria nodorum (glume blotch) on wheat; conditions: for pest or weed control at 400 µg/mL: Parastagonospora nodorum, in Triticum aestivum, foliar, read-out: LETPNO disease control, host wheat, 400 ppm (+++: 100 ppm); for LETPNO disease control: host wheat, 400 ppm (+++: 100 ppm)
Description: as §3, §7, §5, §6

[13] = test system: two spotted spider mite (Tetranychus urticae); conditions: 400 ppm, squash plants, three days after treatment, 4320 min
[14] = test system: cotton aphid (Aphis gossypii); conditions: 400 ppm, squash plants, three days after treatment, 4320 min
[15] = test system: German cockroach (Blattella germanicus); assay: whole plant or invertebrate; type: in vivo; conditions: 240 h, ten days, read-out: GECR activity (rated on live and dead insects)
Description: as §1
GECR refers to German cockroach
as §2
Activity against German cockroach (Blattella germanicus) was evaluated as follows. 8 mL of alfalfa based green insect diet material was dispensed into a one ounce diet cup. The cups were then sprayed with formulated material through a flat-fan nozzle. The test was run using concentrations of 400 ppm and 50 ppm. Treated cups were air dried for 24 hours and infested with five late third or early fourth instar German cockroaches. The cups were capped and held for ten days in an environmental growth chamber at a temperature of […]. Activity was then rated based on the total number of live and dead insects.

Row | SMILES | pest or weed control at 400 µg/mL [1] | pest or weed control at 400 ppm [2] | mortality at 400 ppm [3] | pest or weed control at 400 µg/mL [4] | mortality at 50 ppm [5] | mortality at 400 ppm [5] | mortality at 50 ppm [6] | mortality at 400 ppm [6] | pest or weed control at 400 µg/mL [7] | pest or weed control at 400 µg/mL [8] | mortality at 50 ppm [9] | mortality at 24 ppm [10] | pest or weed control at 50 ppm [11] | pest or weed control at 400 ppm [11] | pest or weed control at 400 µg/mL [12] | ERYSGT disease control [1] | TBW activity (rated on live and dead larvae and size of live larvae) [2] | TSSM activity (percent based on mites present in plants sprayed with solvent alone) [13] | PYRIOR disease control [4] | mortality at 400 ppm [15] | further results
1 | Fc1cccc2c(OCCc3ccc(Oc4ccc(C(F)(F)F)cn4)cc3)ncnc12 [Compound 27, 8-Fluoro-4-(2-(4-(5-(trifluoromethyl)-2-pyridinyloxy)phenyl)ethoxy)quinazoline] | 90 to 100% | 100% | 100% | 90 to 100% | 100% | 100% | 90% | 100% | 90 to 100% | 90 to 100% | 100% | 100% | 100% | 100% | 0 to 19% | – | – | – | – | – | –
2 | Fc1cccc2c(OCCc3ccc(Oc4nc(Cl)c(Cl)cc4Cl)cc3)ncnc12 [Compound 42] | – | – | – | – | – | – | – | – | – | 20 to 89% | – | – | – | – | – | - (0-19% control at 400 ppm) | 0 | 0% | - (0-19% control at 400 ppm) | – | CA activity (percent based on aphids present in plants sprayed with solvent alone) [14]: 0%; ALH percent mortality [5]: 60%; PUCCRT disease control [7]: + (20-89% control at 400 ppm); BAW activity (rated on live and dead larvae and size of live larvae) [11]: 0; LETPNO disease control [12]: - (0-19% control at 400 ppm)
3 | Fc1cccc2c(OCCc3ccc(Oc4nc(Cl)c(Cl)cc4Cl)cc3)ncnc12 [Compound 44] | – | – | – | – | – | – | – | – | – | – | – | 100% | – | – | – | +++ (90-100% control at 100 ppm) | 100 | 50% | + (20-89% control at 400 ppm) | 20% | CA activity (percent based on aphids present in plants sprayed with solvent alone) [14]: 100%; ALH percent mortality [5]: 0%; PUCCRT disease control [7]: +++ (90-100% control at 100 ppm); PLASVI disease control ([8]; host grape, foliar spray, 400 ppm (+++: 100 ppm)): + (20-89% control at 400 ppm); BAW activity (rated on live and dead larvae and size of live larvae) [11]: 100; LETPNO disease control [12]: + (20-89% control at 400 ppm)
4 | c1cnc(Oc2ccc(CCOc3ncnc4ccccc34)cc2)nc1 [Compound 45] | 90 to 100% | 100% | 60% | 90 to 100% | 60% | 40% | 100% | 100% | 90 to 100% | 90 to 100% | – | 0% | 100% | 100% | 0 to 19% | – | – | – | – | 20% | mortality at 50 ppm [15]: 0%; pest or weed control at 50 ppm [2]: 100%; mortality at 50 ppm [3]: 40%
5 | c1ccc2c(OCCc3ccc(Oc4cnccn4)cc3)ncnc2c1 [Compound 51] | 90 to 100% | 100% | 0% | 90 to 100% | 100% | 100% | 0% | 0% | 0 to 19% | 90 to 100% | 0% | 100% | 100% | 100% | 90 to 100% | – | – | – | – | 0% | mortality at 50 ppm [15]: 0%; pest or weed control at 50 ppm [2]: 100%; mortality at 50 ppm [3]: 0%

Source: US5326766A, “4-(2-(4-(2-pyridinyloxy)phenyl)ethoxy)quinazoline and analogues thereof” (priority 1992, dated 1994)
